Experimental data as given in ChEMBL document CHEMBL4507320, “Data for DCP probe NVS-MALT1” (2021).
The source made the active and inactive calls. No cut-off for these calls is given here.

Legend:
[1] = biological target: G protein-coupled receptor kinase 3 (Homo sapiens) (UniProt P35626); conditions: Compound concentration 1000.0 nM
[2] = biological target: Hormonally up-regulated neu tumor-associated kinase (Homo sapiens) (UniProt P57058); conditions: Compound concentration 1000.0 nM
[3] = biological target: AP2-associated protein kinase 1 (Homo sapiens) (UniProt Q2M2I8); conditions: Compound concentration 1000.0 nM
[4] = biological target: Mitogen-activated protein kinase kinase kinase kinase 3 (Homo sapiens) (UniProt Q8IVH8); conditions: Compound concentration 1000.0 nM
[5] = biological target: Mitogen-activated protein kinase kinase kinase 11 (Homo sapiens) (UniProt Q16584); conditions: Compound concentration 1000.0 nM
[6] = biological target: 5-hydroxytryptamine receptor 3A (Homo sapiens) (UniProt P46098); conditions: Compound concentration 10.0 uM
[7] = biological target: GABA-A receptor; anion channel (Rattus norvegicus) (UniProt O09028+P15431+P18506+P18508+P19969+P20236+P23574+P23576+P28471+P28473+P30191+P62813+P63079+P63138+Q91ZM7+Q9ES14); conditions: Compound concentration 10.0 uM
[8] = biological target: Death-associated protein kinase 3 (Homo sapiens) (UniProt O43293); conditions: Compound concentration 1000.0 nM
[9] = biological target: 5-hydroxytryptamine receptor 2B (Homo sapiens) (UniProt P41595); conditions: Compound concentration 10.0 uM
Sequence of 5-hydroxytryptamine receptor 2B (Homo sapiens) (P41595 whole entry): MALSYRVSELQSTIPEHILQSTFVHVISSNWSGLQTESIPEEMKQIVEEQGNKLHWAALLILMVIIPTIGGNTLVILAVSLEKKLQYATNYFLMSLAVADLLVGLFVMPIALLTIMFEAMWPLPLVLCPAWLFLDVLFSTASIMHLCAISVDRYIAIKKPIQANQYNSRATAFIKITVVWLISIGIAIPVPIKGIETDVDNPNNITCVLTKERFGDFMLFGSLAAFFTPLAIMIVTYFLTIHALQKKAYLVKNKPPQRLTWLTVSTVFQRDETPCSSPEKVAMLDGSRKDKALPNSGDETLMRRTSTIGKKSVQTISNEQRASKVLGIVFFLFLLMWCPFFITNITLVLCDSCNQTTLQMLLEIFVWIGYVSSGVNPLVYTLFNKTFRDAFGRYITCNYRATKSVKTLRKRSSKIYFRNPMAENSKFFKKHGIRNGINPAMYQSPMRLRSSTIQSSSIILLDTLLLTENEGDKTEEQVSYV

[10] = biological target: Insulin-like growth factor 1 receptor (Homo sapiens) (UniProt P08069); conditions: Compound concentration 1000.0 nM
[11] = biological target: Receptor-interacting serine/threonine-protein kinase 2 (Homo sapiens) (UniProt O43353); conditions: Compound concentration 1000.0 nM
Sequence of Receptor-interacting serine/threonine-protein kinase 2 (Homo sapiens) (O43353 whole entry): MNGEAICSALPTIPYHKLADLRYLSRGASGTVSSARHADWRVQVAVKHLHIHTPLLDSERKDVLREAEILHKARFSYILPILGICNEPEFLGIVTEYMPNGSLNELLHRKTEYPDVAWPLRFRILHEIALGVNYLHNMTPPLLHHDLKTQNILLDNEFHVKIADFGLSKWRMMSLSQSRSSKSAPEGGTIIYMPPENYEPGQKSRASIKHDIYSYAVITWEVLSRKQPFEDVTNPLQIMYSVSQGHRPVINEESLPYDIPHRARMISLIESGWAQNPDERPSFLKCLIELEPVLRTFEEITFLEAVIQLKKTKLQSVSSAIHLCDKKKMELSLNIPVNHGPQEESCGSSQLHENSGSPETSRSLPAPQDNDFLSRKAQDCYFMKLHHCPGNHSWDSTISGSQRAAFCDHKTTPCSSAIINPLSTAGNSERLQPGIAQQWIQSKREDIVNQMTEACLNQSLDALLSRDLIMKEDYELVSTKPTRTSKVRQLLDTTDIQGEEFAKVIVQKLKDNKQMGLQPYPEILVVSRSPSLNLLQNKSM

[12] = biological target: Sigma non-opioid intracellular receptor 1 (Homo sapiens, UniProt Q99720); conditions: Compound concentration 10.0 uM
Sequence of Sigma non-opioid intracellular receptor 1 (Q99720 whole entry): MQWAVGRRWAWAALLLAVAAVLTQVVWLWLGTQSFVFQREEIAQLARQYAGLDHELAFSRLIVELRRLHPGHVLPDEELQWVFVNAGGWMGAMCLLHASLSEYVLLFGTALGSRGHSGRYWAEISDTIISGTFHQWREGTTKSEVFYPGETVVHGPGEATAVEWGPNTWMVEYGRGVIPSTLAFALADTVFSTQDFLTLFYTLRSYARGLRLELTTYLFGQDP

[13] = biological target: Receptor tyrosine-protein kinase erbB-2 (Homo sapiens) (UniProt P04626); conditions: Compound concentration 1000.0 nM
[14] = tested on: Phosphatidylinositol 4,5-bisphosphate 3-kinase catalytic subunit alpha isoform (Homo sapiens), P42336 [M1043I]; conditions: Compound concentration 1000.0 nM
[15] = tested on: Tyrosine-protein kinase ABL1 (Homo sapiens), P00519 [M351T]; conditions: Compound concentration 1000.0 nM
[16] = biological target: Serine/threonine-protein kinase D1 (Homo sapiens) (UniProt Q15139); conditions: Compound concentration 1000.0 nM
[17] = biological target: Inhibitor of nuclear factor kappa-B kinase subunit beta (Homo sapiens) (UniProt O14920); conditions: Compound concentration 1000.0 nM
[18] = biological target: Serine/threonine-protein kinase TAO1 (Homo sapiens) (UniProt Q7L7X3); conditions: Compound concentration 1000.0 nM
[19] = biological target: Aurora kinase A (Homo sapiens) (UniProt O14965); conditions: Compound concentration 1000.0 nM
[20] = biological target: Interleukin-1 receptor-associated kinase 3 (Homo sapiens) (UniProt Q9Y616); conditions: Compound concentration 1000.0 nM
Sequence of Interleukin-1 receptor-associated kinase 3 (Homo sapiens) (Q9Y616 whole entry): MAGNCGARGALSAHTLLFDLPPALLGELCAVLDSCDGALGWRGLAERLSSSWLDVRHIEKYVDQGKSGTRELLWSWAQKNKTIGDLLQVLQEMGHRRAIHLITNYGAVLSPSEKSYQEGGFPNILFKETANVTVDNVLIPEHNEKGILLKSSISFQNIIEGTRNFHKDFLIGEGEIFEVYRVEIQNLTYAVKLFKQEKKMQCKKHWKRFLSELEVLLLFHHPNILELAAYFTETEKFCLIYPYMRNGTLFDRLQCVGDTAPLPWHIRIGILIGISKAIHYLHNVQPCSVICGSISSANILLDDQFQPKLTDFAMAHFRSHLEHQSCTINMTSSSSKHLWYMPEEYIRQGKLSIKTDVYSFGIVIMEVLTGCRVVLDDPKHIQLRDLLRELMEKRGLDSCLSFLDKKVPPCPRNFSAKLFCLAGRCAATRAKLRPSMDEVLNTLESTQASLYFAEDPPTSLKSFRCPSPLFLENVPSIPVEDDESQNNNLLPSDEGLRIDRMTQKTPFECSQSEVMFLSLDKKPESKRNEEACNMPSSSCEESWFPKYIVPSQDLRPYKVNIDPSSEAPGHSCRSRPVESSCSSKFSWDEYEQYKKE

[21] = biological target: Mitogen-activated protein kinase kinase kinase 7 (Homo sapiens) (UniProt O43318); conditions: Compound concentration 1000.0 nM
Sequence of Mitogen-activated protein kinase kinase kinase 7 (Homo sapiens) (O43318 whole entry): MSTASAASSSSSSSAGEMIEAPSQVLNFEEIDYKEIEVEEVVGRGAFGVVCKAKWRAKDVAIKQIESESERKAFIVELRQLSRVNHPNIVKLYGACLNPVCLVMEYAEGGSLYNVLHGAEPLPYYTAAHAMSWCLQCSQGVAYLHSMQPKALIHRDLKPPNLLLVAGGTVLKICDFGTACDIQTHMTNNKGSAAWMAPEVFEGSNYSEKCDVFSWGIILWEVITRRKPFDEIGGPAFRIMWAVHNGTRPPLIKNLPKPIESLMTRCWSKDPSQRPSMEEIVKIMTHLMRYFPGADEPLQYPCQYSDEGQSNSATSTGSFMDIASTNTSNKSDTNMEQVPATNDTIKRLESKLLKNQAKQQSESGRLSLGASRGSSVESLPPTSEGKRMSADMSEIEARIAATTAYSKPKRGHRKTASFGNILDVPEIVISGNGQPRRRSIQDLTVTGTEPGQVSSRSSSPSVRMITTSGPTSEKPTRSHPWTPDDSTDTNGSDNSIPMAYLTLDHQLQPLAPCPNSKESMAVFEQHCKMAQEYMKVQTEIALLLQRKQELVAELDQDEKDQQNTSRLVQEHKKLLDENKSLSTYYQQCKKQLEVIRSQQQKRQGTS

[22] = biological target: Inhibitor of nuclear factor kappa-B kinase subunit epsilon (Homo sapiens) (UniProt Q14164); conditions: Compound concentration 1000.0 nM
[23] = biological target: T1, Mucosa-associated lymphoid tissue lymphoma translocation protein 1 (Homo sapiens, UniProt Q9UDY8); assay: Jurkat IL-2 (IL2-RGA PMA + anti-CD28); type: cell-based
T1 sequence (Q9UDY8 whole entry): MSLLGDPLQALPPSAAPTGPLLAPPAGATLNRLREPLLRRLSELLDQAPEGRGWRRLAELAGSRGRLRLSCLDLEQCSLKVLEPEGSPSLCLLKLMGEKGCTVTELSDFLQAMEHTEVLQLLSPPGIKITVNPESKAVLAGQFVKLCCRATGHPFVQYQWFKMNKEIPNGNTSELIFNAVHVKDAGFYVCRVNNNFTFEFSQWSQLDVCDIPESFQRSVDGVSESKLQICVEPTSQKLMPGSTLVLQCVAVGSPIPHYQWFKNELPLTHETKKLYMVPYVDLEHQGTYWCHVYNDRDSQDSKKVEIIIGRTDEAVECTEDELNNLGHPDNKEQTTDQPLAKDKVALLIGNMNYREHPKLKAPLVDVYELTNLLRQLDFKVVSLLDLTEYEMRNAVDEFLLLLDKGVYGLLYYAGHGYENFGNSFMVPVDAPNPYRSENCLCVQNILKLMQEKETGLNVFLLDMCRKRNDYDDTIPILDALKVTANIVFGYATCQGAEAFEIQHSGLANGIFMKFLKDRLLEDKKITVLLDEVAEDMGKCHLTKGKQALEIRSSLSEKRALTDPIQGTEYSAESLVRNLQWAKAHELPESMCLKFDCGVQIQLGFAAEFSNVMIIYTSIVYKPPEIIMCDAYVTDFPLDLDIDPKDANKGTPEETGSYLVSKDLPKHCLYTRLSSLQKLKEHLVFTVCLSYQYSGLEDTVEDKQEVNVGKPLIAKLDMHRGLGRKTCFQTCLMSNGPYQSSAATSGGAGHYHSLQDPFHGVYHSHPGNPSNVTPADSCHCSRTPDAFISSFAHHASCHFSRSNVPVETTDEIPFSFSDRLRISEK

[24] = biological target: Microtubule-associated serine/threonine-protein kinase 1 (Homo sapiens) (UniProt Q9Y2H9); conditions: Compound concentration 1000.0 nM
[25] = biological target: Cyclin-dependent kinase 11A (Homo sapiens) (UniProt Q9UQ88); conditions: Compound concentration 1000.0 nM
[26] = biological target: Serine/threonine-protein kinase Nek6 (Homo sapiens) (UniProt Q9HC98); conditions: Compound concentration 1000.0 nM
[27] = biological target: Serine/threonine-protein kinase TNNI3K (Homo sapiens) (UniProt Q59H18); conditions: Compound concentration 1000.0 nM
[28] = tested on: Phosphatidylinositol 4,5-bisphosphate 3-kinase catalytic subunit alpha isoform (Homo sapiens), P42336 [C420R]; conditions: Compound concentration 1000.0 nM
[29] = tested on: Phosphatidylinositol 4,5-bisphosphate 3-kinase catalytic subunit alpha isoform (Homo sapiens), P42336 [E545K]; conditions: Compound concentration 1000.0 nM
Sequence of Phosphatidylinositol 4,5-bisphosphate 3-kinase catalytic subunit alpha isoform (Homo sapiens), P42336 [E545K] (P42336 whole entry E545K, canonical isoform): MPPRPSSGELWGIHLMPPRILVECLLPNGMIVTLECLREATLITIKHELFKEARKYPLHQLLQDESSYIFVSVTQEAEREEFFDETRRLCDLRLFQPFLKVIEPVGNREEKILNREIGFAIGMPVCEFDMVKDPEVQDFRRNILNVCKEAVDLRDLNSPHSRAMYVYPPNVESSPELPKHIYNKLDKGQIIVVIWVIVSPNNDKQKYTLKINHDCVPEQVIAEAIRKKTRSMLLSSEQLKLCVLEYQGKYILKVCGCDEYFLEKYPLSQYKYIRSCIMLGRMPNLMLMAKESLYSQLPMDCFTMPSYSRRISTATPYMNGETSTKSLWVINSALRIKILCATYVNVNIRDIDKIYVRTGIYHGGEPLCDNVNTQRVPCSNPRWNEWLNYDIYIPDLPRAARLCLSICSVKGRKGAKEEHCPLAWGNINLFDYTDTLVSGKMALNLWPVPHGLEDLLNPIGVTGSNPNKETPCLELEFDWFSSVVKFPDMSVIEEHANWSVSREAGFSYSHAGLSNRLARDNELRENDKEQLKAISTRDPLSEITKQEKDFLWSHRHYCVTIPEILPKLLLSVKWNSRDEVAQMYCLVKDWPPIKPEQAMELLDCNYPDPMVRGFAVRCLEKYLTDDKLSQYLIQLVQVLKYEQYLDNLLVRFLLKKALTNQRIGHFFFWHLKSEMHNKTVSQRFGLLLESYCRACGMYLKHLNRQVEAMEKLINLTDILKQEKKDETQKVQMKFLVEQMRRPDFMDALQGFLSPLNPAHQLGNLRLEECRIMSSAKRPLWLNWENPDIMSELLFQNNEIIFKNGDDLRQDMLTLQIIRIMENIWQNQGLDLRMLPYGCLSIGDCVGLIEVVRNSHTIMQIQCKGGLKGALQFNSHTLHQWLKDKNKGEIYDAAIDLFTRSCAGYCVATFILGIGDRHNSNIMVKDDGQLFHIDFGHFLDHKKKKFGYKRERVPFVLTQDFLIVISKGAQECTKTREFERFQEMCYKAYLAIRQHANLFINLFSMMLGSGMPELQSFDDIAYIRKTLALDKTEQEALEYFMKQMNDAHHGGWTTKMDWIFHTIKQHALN

[30] = biological target: Tyrosine-protein kinase FRK (Homo sapiens) (UniProt P42685); conditions: Compound concentration 1000.0 nM
[31] = biological target: Beta-adrenergic receptor kinase 1 (Homo sapiens) (UniProt P25098); conditions: Compound concentration 1000.0 nM
Sequence of Beta-adrenergic receptor kinase 1 (Homo sapiens) (P25098 whole entry): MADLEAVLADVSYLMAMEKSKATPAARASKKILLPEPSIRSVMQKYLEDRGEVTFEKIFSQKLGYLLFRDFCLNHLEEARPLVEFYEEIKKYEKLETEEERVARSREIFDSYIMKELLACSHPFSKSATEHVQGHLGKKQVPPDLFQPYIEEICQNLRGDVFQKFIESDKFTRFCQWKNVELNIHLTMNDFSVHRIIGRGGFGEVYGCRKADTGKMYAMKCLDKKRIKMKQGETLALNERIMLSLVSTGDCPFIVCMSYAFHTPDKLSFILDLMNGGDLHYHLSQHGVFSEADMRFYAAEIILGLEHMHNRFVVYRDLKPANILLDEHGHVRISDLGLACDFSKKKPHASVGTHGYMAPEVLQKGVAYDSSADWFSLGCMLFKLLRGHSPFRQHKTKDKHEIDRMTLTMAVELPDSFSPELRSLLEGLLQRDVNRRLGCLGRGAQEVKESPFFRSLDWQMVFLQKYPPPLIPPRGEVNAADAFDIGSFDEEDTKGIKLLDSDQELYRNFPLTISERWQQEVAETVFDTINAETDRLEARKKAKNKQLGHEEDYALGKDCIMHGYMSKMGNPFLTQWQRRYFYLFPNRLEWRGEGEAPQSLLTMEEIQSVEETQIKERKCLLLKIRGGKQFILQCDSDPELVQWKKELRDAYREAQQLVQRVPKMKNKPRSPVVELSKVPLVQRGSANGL

[32] = biological target: Receptor-type tyrosine-protein kinase FLT3 (Homo sapiens, UniProt P36888); conditions: Compound concentration 1000.0 nM

Sequence of Hormonally up-regulated neu tumor-associated kinase (Homo sapiens) (P57058 whole entry): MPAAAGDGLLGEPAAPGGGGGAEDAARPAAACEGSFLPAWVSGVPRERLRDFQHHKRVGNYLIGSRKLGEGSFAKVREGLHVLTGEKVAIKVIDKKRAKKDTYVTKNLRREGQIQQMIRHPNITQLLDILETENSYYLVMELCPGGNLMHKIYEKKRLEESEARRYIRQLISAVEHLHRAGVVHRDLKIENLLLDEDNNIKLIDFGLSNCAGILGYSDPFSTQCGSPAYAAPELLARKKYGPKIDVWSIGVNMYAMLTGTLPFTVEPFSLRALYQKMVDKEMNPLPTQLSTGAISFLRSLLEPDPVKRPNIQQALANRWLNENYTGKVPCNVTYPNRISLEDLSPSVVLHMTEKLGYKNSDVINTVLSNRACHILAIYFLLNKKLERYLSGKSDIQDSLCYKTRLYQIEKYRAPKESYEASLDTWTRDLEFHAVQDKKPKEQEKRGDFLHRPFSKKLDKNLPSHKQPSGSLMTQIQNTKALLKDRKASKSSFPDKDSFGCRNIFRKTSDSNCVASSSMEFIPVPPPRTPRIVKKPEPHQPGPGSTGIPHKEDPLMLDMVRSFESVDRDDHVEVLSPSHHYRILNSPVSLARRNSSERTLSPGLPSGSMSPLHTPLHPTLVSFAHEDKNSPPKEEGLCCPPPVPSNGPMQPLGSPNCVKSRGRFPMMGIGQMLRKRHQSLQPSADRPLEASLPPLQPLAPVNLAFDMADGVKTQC

Structure (SMILES): CO[C@@H](C)c1c(Nc2ccc([C@H](N(C)C(=O)C3CCS(=O)(=O)CC3)C(F)(F)F)cc2)cnc2cc(Cl)nn12 [NVS-MALT1]
- residual activity [1]: 100%
- residual activity [2]: 100%
- residual activity [3]: 84%
- residual activity [4]: 99%
- residual activity [5]: 79%
- inhibition [6]: -6.2%
- inhibition [7]: 21.3%
- residual activity [8]: 91%
- inhibition [9]: -3.94%
- residual activity [10]: 100%
- residual activity [11]: 74%
- inhibition [12]: 18.8%
- residual activity [13]: 59%
- residual activity [14]: 100%
- residual activity [15]: 65%
- residual activity [16]: 100%
- residual activity [17]: 100%
- residual activity [18]: 100%
- residual activity [19]: 100%
- residual activity [20]: 68%
- residual activity [21]: 89%
- residual activity [22]: 100%
- IC50 [23]: 0.0034 µM (active)
- residual activity [24]: 43%
- residual activity [25]: 93%
- residual activity [26]: 97%
- residual activity [27]: 73%
- residual activity [28]: 93%
- residual activity [29]: 48%
- residual activity [30]: 80%
- residual activity [31]: 84%
- residual activity [32]: 68%

Structure (SMILES): CO[C@@H](C)c1c(Nc2ccc([C@@H](N(C)C(=O)C3CCS(=O)(=O)CC3)C(F)(F)F)cc2)cnc2cc(Cl)nn12 [NVS-MALT1-C]
- residual activity [1]: 91%
- residual activity [2]: 100%
- residual activity [3]: 96%
- residual activity [4]: 94%
- residual activity [5]: 85%
- inhibition [6]: -1.2%
- inhibition [7]: 20.8%
- residual activity [8]: 47%
- inhibition [9]: 9.74%
- residual activity [10]: 97%
- residual activity [11]: 83%
- inhibition [12]: 56.8%
- residual activity [13]: 70%
- residual activity [14]: 100%
- residual activity [15]: 59%
- residual activity [16]: 100%
- residual activity [17]: 100%
- residual activity [18]: 100%
- residual activity [19]: 100%
- residual activity [20]: 86%
- residual activity [21]: 84%
- residual activity [22]: 100%
- IC50 [23]: 1.9 µM (active)
- residual activity [24]: 29%
- residual activity [25]: 100%
- residual activity [26]: 100%
- residual activity [27]: 91%
- residual activity [28]: 93%
- residual activity [29]: 62%
- residual activity [30]: 91%
- residual activity [31]: 92%
- residual activity [32]: 64%
